molecular target: T1, rat prostate androgen receptor (Rattus norvegicus, UniProt P15207); experiment: inhibitory activity on binding of ^3 H-mibolerone on rat prostate androgen receptor; settings: ^3 H-mibolerone 1 nM, triamcinolone acetonide 5 μM, rat ventral prostate cytosol, 20 hours at 0° C.; read-out: Inhibitory activity on mibolerone specific binding [IC50 (M)]
T1 construct: the supernatant was obtained as cytoplasm fraction; from tissue; host or cells: cytosol (105000×g supernatant) of rat ventral prostate, 24 hours after castration
T1 sequence (P15207 1-902): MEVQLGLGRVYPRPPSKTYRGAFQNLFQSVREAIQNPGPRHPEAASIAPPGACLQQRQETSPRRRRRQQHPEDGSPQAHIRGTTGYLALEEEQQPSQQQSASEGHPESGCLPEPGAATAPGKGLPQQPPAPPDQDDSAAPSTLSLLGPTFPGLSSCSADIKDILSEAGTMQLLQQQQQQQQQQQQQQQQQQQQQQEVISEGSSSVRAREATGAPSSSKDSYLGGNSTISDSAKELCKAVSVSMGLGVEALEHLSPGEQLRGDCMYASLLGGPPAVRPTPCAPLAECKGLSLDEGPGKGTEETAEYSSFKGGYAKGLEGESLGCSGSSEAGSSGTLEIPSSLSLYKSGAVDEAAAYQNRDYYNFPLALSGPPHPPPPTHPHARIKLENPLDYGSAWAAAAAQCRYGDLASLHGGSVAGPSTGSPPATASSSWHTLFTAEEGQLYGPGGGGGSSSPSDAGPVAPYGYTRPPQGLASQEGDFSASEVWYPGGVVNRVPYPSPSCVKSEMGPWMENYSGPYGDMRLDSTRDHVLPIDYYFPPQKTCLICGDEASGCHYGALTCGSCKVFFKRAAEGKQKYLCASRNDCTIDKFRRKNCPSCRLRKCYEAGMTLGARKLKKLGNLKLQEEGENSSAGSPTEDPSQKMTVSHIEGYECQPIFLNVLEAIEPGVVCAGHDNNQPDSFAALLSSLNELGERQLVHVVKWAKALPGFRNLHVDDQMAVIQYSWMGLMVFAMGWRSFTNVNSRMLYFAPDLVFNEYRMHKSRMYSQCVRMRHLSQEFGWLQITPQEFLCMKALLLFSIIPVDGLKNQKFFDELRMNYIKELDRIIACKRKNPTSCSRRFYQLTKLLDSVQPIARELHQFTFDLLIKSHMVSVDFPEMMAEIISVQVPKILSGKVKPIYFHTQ
Method: B. Measurement of inhibitory activity on binding of ^3 H-mibolerone on rat prostate androgen receptor
(1) Preparation of cytosol from rat prostate
The rat was sacrificed 24 hours after castration, and the ventral lobe of prostate was removed, and was gently homogenized, in ice-cooling water bath, at first by using Polytron and then using Potter type homogenizer, in three-fold amount of buffer solution A (1.5 mM EDTA, 2 mM dithiothreitol, 10 mM molybdate sodium, 10 % by volume of glycerol, 10 mM NaF, 25 mM phosphate sodium, pH 7.2). The obtained homogenate was filtrated through double gauze, and centrifuged at 105000×g for 60 minutes at 4° C., and the supernatant was obtained as cytoplasm fraction.
(2) Measurement of specific binding of ^3 H-mibolerone on prostate cytoplasm androgen receptor
To the cytoplasm fraction obtained in (1), ^3 H-mibolerone (87.0 Ci/mmol) was added, so that a final concentration is adjusted to 1 nM, and at the same time, in order to inhibit binding of ^3 H-mibolerone to progestin receptor, triamsinolone acetonide was added to a final concentration of 5 μM, and the final volume was adjusted to 0.4 ml with buffer solution A, and the reaction mixture was incubated for 20 hours at 0° C. After incubation, 0.5 ml of 60% hydroxylapatite slurry (washed and equilibrate with a buffer solution B: 10 mM NaH2 P04, 20 mM tris-hydrochloric acid, pH 7.2) was added, and incubated for 10 minutes at 0° C., the solution was transferred onto a glass fiber filter, and washed five times with 5 ml portions of buffer solution B containing 0.1% (weight/volume) of Triton X-100, to remove free ^3 H-mibolerone. This glass fiber was transferred into vial, and 10 ml of aquasol-2 was added, and the radioactivity was measured, and the total binding amount of ^3 H-mibolerone on prostate cytoplasm androgen receptor was determined.
The nonspecific binding amount was determined similarly by adding an unlabeled 5α-DHT in the reaction solution to a final concentration of 1 μM. The difference between the total binding amount and nonspecific binding amount was determined as the specific binding amount on the androgen receptor.
(3) Inhibitory activity of sample compounds on ^3 H-mibolerone specific binding
The compounds obtained in the experiments were added simultaneously with ^3 H-mibolerone at different concentrations to incubate same as in (2), and the specific binding amount of 3H-mibolerone on androgen receptor was determined. Comparing this value with the value obtained in (2), the IC50 value of inhibitory activity of the compounds on ^3 H-mibolerone specific binding was determined.

IC50 | Compound
2.8e-07 M | CCOC(=O)Cc1cnc2c(-c3ccc(Sc4ccccc4)cc3)cnn2c1O [Example 33, 7-Hydroxy-6-ethoxycarbonylmethyl-3-(4-phenylthiophenyl)pyrazolo[1,5-a]pyrimidine]
7.6e-07 M | COc1cccc(-c2cnc3c(-c4ccc(Sc5ccccc5)cc4)cnn3c2O)c1 [Example 54, 7-Hydroxy-6-(3-methoxyphenyl)-3-(4-phenylthiophenyl)pyrazolo[1,5-a]pyrimidine]
1.3e-07 M | O=C(O)CCc1cnc2c(-c3ccc(Sc4ccccc4)cc3)cnn2c1O [Example 39, 7-Hydroxy-6-carboxyethyl-3-(4-phenylthiophenyl)pyrazolo[1,5-a]pyrimidine]
3.1e-05 M | Oc1cc(CCl)nc2c(-c3ccc(Sc4ccccc4)cc3)cnn12 [Example 9, 7-Hydroxy-5-chloromethyl-3-(4-phenylthiophenyl)pyrazolo[1,5-a]pyrimidine]
> 5e-06 M | Oc1cc(-c2ccccc2)nc2c(-c3ccc(Sc4ccccc4)cc3)cnn12 [Example 10, 7-Hydroxy-5-phenyl-3-(4-phenylthiophenyl)pyrazolo[1,5-a]pyrimidine]
1.6e-07 M | CCc1cnc2c(-c3ccc(Sc4ccccc4)cc3)cnn2c1O [Example 25, 7-Hydroxy-6-ethyl-3-(4-phenylthiophenyl)pyrazolo[1,5-a]pyrimidine]
2.3e-07 M | COc1ccc(-c2cnc3c(-c4ccc(Sc5ccccc5)cc4)cnn3c2O)cc1 [Example 52, 7-Hydroxy-6-(4-methoxyphenyl)-3-(4-phenylthiophenyl)pyrazolo[1,5-a]pyrimidine]
2e-07 M | CCOC(=O)c1cnc2c(-c3ccc(Sc4ccccc4)c(OC)c3)cnn2c1O [Example 14, 7-Hydroxy-6-ethoxycarbonyl-3-(3-methoxy-4-phenylthiophenyl)pyrazolo[1,5-a]pyrimidine]
1.55e-07 M | CC(O)c1cnc2c(-c3ccc(Sc4ccccc4)cc3)cnn2c1O (stereo not shown) [Example 70, 7-Hydroxy-6-(1-hydroxyethyl)-3-(4-phenylthiophenyl)pyrazolo[1,5-a]pyrimidine]
7.4e-07 M | Oc1ccccc1-c1cnc2c(-c3ccc(Sc4ccccc4)cc3)cnn2c1O [Example 64, 7-Hydroxy-6-(2-hydroxyphenyl)-3-(4-phenylthiophenyl)pyrazolo[1,5-a]pyrimidine]
7.6e-08 M | NC(=O)c1cnc2c(-c3ccc(Sc4ccccc4)cc3)cnn2c1O [Example 43]
6.4e-08 M | Cc1cnc2c(-c3ccc(Sc4ccccc4)cc3)cnn2c1O [Example 24, 7-Hydroxy-6-methyl-3-(4-phenylthiophenyl)pyrazolo[1,5-a]pyrimidine]
1.3e-05 M | CC(C)c1cc(O)n2ncc(-c3ccc(Sc4ccccc4)cc3)c2n1 [Example 7, 7-Hydroxy-5-isopropyl-3-(4-phenylthiophenyl)pyrazolo[1,5-a]pyrimidine]
> 5e-06 M | Oc1c2c(nc3c(-c4ccc(Sc5ccccc5)cc4)cnn13)CCCC2 [Example 12, 9-Hydroxy-3-(4-phenylthiophenyl)-5,6,7,8-tetrahydropyrazolo[5,1-b]quinazoline]
1.8e-07 M | CC(C)c1cnc2c(-c3ccc(Sc4ccccc4)cc3)cnn2c1O [Example 26, 7-Hydroxy-6-isopropyl-3-(4-phenylthiophenyl)pyrazolo[1,5-a]pyrimidine]
1.65e-07 M | COc1cnc2c(-c3ccc(Sc4ccccc4)cc3)cnn2c1O [Example 21, 7-Hydroxy-6-methoxy-3-(4-phenylthiophenyl)pyrazolo[1,5-a]pyrimidine]
3.2e-07 M | COc1ccccc1Cc1cnc2c(-c3ccc(Sc4ccccc4)cc3)cnn2c1O [Example 30, 7-Hydroxy-6-(2-methoxyphenylmethyl)-3-(4-phenylthiophenyl)pyrazolo[1,5-a]pyrimidine]
1.4e-07 M | Oc1cccc(-c2cnc3c(-c4ccc(Sc5ccccc5)cc4)cnn3c2O)c1 [Example 65, 7-Hydroxy-6-(3-hydroxyphenyl)-3-(4-phenylthiophenyl)pyrazolo[1,5-a]pyrimidine]
6.6e-08 M | Oc1c(-c2ccc(F)cc2)cnc2c(-c3ccc(Sc4ccccc4)cc3)cnn12 [Example 55, 7-Hydroxy, 6-(4-fluorophenyl)-3-(4-phenylthiophenyl)pyrazolo[1,5-a]pyrimidine]

IC50 | Compound
5.8e-07 M | Cc1nc2c(-c3ccc(Sc4ccccc4)cc3)cnn2c(O)c1Cl [Example 37, 7-hydroxy-6-chloro-5-methyl-3-(4-phenylthiophenyl)pyrazolo[1,5-a]pyrimidine]
8.8e-08 M | Oc1c(Br)cnc2c(-c3ccc(Sc4ccccc4)cc3)cnn12 [Example 35, 7-Hydroxy-6-bromo-3-(4-phenylthiophenyl)pyrazolo[1,5a]pyrimidine]
> 5e-06 M | Oc1ccc(Cc2cnc3c(-c4ccc(Sc5ccccc5)cc4)cnn3c2O)cc1 [Example 63, 7-Hydroxy-6-(4-hydroxyphenylmethyl)-3-(4-phenylthiophenyl)pyrazolo[1,5-a]pyrimidine]
3.9e-08 M | OCCc1cnc2c(-c3ccc(Sc4ccccc4)cc3)cnn2c1O [Example 60, 7-Hydroxy-6-(2-hydroxyethyl)-3-(4-phenylthiophenyl)pyrazolo[1,5-a]pyrimidine]
2.3e-08 M | Cc1cc(-c2cnn3c(O)ccnc23)ccc1Sc1ccccc1 [Example 76, 7-Hydroxy-3-(3-methyl-4-phenylthiophenyl)pyrazolo[1,5-a]pyrimidine]
1.5e-07 M | COc1cc(-c2cnn3c(O)ccnc23)ccc1Sc1ccccc1 [Example 15, 7-Hydroxy-3-(3-methoxy-4-penylthiophenyl)pyrazolo[1,5-a]pyrimidine]
> 5e-06 M | c1ccc(Sc2ccc(-c3cnn4cccnc34)cc2)cc1 [Example 49, 3-(4-phenylthiophenyl)pyrazolo[1,5-a]pyrimidine]
8.8e-07 M | O=C(c1cnc2c(-c3ccc(Sc4ccccc4)cc3)cnn2c1O)C(F)(F)F [Example 69, 7-Hydroxy-6-trifluoroacetyl-3-(4-phenylthiophenyl)pyrazolo[1,5-a]pyrimidine]
1.2e-06 M | Cc1nn2c(O)ccnc2c1-c1ccc(Sc2ccccc2)cc1 [Example 18, 7-Hydroxy-2-methyl-3-(4-phenylthiophenyl)pyrazolo[1,5-a]pyrimidine]
1.6e-07 M | Oc1ccccc1Cc1cnc2c(-c3ccc(Sc4ccccc4)cc3)cnn2c1O [Example 61, 7-Hydroxy-6-(2-hydroxyphenylmethyl)-3-(4-phenylthiophenyl)pyrazolo[1,5-a]pyrimidine]
2.5e-08 M | Oc1c(Cc2ccccc2)cnc2c(-c3ccc(Sc4ccccc4)cc3)cnn12 [Example 29, 7-Hydroxy-6-benzyl-3-(4-phenylthiophenyl)prazolo[1,5-a]pyrimidine]
1.7e-07 M | CC(C)(C)NC(=O)c1cnc2c(-c3ccc(Sc4ccccc4)cc3)cnn2c1O [Example 46, 7-Hydroxy-3-(4-phenylthiophenyl)-6-(N-t-butyl)carbamoylpyrazolo[1,5-a]pyrimidine]
5.8e-08 M | O=C(O)c1cnc2c(-c3ccc(Sc4ccccc4)cc3)cnn2c1O [Example 38, 7-Hydroxy-6-carboxy-3-(4-phenylthiophenyl)pyrazolo[1,5-a]pyrimidine]
1.3e-07 M | Oc1c(C2CCCCC2)cnc2c(-c3ccc(Sc4ccccc4)cc3)cnn12 [Example 27, 7-Hydroxy-6-cyclohexyl-3-(4-phenylthiophenyl)pyrazolo[1,5-a]pyrimidine]
7.7e-08 M | COc1cc(-c2cnn3c(O)c(C(N)=O)cnc23)ccc1Sc1ccccc1 [Example 44, 6-Carbamoyl-7-hydroxy-3-(3-methoxy-4-phenylthiophenyl)pyrazolo[1,5-a]pyrimidine]
9e-07 M | CCc1cc(O)n2ncc(-c3ccc(Sc4ccccc4)cc3)c2n1 [Example 6, 7-Hydroxy-5-ethyl-3-(4-phenylthiophenyl)pyrazolo[1,5-a]pyrimidine]
3.4e-08 M | CC(=O)c1cnc2c(-c3ccc(Sc4ccccc4)cc3)cnn2c1O [Example 67, 7-Hydroxy-6-acetyl-3-(4-phenylthiophenyl)pyrazolo[1,5-a]pyrimidine]
1.6e-07 M | Oc1c(C(O)C(F)(F)F)cnc2c(-c3ccc(Sc4ccccc4)cc3)cnn12 (stereo not shown) [Example 72, 7-Hydroxy-6-(1-hydroxy-2,2,2-trifluoroethyl)-3-(4-phenylthiophenyl)pyrazolo[1,5-a]pyrimidine]
3e-07 M | COc1ccccc1-c1cnc2c(-c3ccc(Sc4ccccc4)cc3)cnn2c1O [Example 53, 7-Hydroxy-6-(2-methoxyphenyl)-3-(4-phenylthiophenyl)pyrazolo[1,5-a]pyrimidine]

Compound | IC50
7-Hydroxy-6-ethoxycarbonylmethyl-3-(4-phenylthiophenyl)pyrazolo[1,5-a]pyrimidine [Example 34] | 2.9e-07 M
CC(=O)OCCc1cnc2c(-c3ccc(Sc4ccccc4)cc3)cnn2c1O [Example 59, 6-(2-Acetoxyethyl)-7-hydroxy-3-(4-phenylthiophenyl)pyrazolo[1,5-a]pyrimidine] | 1.65e-07 M
